Here are results for six compounds from patent US11584710B2, “Compounds for treating infections” (HORITZONTS TECNOLOGICS HUNGARY KORLÁTOLT FELELOSSÉGU …, priority 2017, dated 2023).

What all share (type): cell-based
One assay has as its system A. flavus. The assay is described as follows: Antifungal disk diffusion susceptibility test (CLSI M44). As to conditions: Aspergillus flavus, A. flavus; for zone of inhibition at 150 µg/disc: 150 μg/disc; for zone of inhibition at 500 µg/disc: 500 μg/disc. As to the method:
(§1) Filamentous fungi and yeasts strains, from clinical origin, were supplied by Microbiology Service from The Princess Hospital, Madrid. They are detailed in Table IX.
(§2) Filamentous fungi and yeast cells suspensions in distilled water was prepared from a culture of 24-48 h, depending on species, in Sabouraud agar. Each suspension was adjusted to a fixed size inoculum of 1-5×10^8 CFU/ml with a spectrophotometer (Ferraro, MJ National Committee for Clinical Laboratory Standards. 2000).
(§3) Antifungal susceptibility tests were developed following the standardized methodology detailed in document CLSI: M44-4: Method for Antifungal Disk diffusion susceptibility testing of yeasts consisting of disk diffusion on agar Muller-Hinton (supplemented with 2% glucose).

The subject of the next assay is A. fumigatus. The assay is described as above. As to conditions: Aspergillus fumigatus, A. fumigatus; for zone of inhibition at 150 µg/disc: 150 μg/disc; for zone of inhibition at 500 µg/disc: 500 μg/disc. As to the method:
as §1, §2, §3

The subject of a further assay is A. niger. The assay is described as above. As to conditions: Aspergillus niger, A. niger; for zone of inhibition at 150 µg/disc: 150 μg/disc; for zone of inhibition at 500 µg/disc: 500 μg/disc. As to the method: as §1, §2, §3
The next assay concerns A. terreus. The description is as above. To be noted: Aspergillus terreus, A. terreus; for zone of inhibition at 150 µg/disc: 150 μg/disc; for zone of inhibition at 500 µg/disc: 500 μg/disc. As to the method: as §1, §2, §3
In a further assay the test system is C. albicans. Described as above. To be noted: Candida albicans, C. albicans; for zone of inhibition at 150 µg/disc: 150 μg/disc; for zone of inhibition at 500 µg/disc: 500 μg/disc. As to the method:
as §1, §2, §3

The next assay relates to C. guillermondii. Described as above. As to conditions: C. guillermondii; for zone of inhibition at 150 µg/disc: 150 μg/disc; for zone of inhibition at 500 µg/disc: 500 μg/disc. As to the method: as §1, §2, §3
The next assay concerns C. lusitaniae. The description is as above. To be noted: Clavispora lusitaniae, C. lusitaniae; for zone of inhibition at 150 µg/disc: 150 μg/disc; for zone of inhibition at 500 µg/disc: 500 μg/disc. As to the method:
as §1, §2, §3

The test system of another assay is C. parapsilosis. Described as above. As to conditions: Lodderomyces parapsilosis, C. parapsilosis; for zone of inhibition at 150 µg/disc: 150 μg/disc; for zone of inhibition at 500 µg/disc: 500 μg/disc. As to the method: as §1, §2, §3
The test system of a further assay is C. tropicalis. Described as above. To be noted: Candida tropicalis, C. tropicalis; for zone of inhibition at 150 µg/disc: 150 μg/disc; for zone of inhibition at 500 µg/disc: 500 μg/disc. As to the method:
as §1, §2, §3

A further assay relates to S. cerevisiae. The description is as above. To be noted: Saccharomyces cerevisiae, S. cerevisiae; for zone of inhibition at 150 µg/disc: 150 μg/disc; for zone of inhibition at 500 µg/disc: 500 μg/disc. As to the method:
as §1, §2, §3

The subject of the next assay is A. baumannii. Put plainly: Kirby-Bauer disk diffusion susceptibility test. To be noted: 300 μg/disc. As to the method:
(§4) Bacterial strains, from clinical origin, were supplied by the National Center for Microbiology, Institute of Health Carlos III (Majadahonda, Madrid). They are detailed in Table 1.
(§5) Bacterial cells suspension in sterile saline was prepared from a culture of 24-72 h, depending on bacterial species, in Mueller-Hinton Agar with 5% sheep blood. Each suspension was adjusted to a fixed size inoculum of 1-5×10^8 CFU/ml with a spectrophotometer (Ferraro, MJ National Committee for Clinical Laboratory Standards. 2000).
(§6) Kirby-Bauer disk diffusion susceptibility test protocol was utilized to determine the sensitivity or resistance of pathogenic bacteria against the compounds and others antibiotics. The absence of growth around the disks is an indirect measure of the ability of this compound to inhibit an organism (Kirby, W., et al., Antibiotics Annu. 1956-1957:892). After 18 to 72 hours of incubation at 37° C., with or without CO2, under aerobic or anaerobic conditions, depending on the bacterial species, halo of growth inhibition were obtained and evaluated.
(§7) Interpretation of susceptibility and resistance was based on the presence or absence of a zone of inhibition surrounding the disk. Kirby-Bauer disk diffusion susceptibility test is a common method which uses antibiotic-impregnated wafers to test whether bacteria are affected by antibiotics. The size of the zone of inhibition depends on how effective the antibiotic is at stopping the growth of the bacterium. A stronger antibiotic will create a larger zone, because a lower concentration of the antibiotic is enough to stop growth.
(§8) All compounds were tested at 300 μg/disc.
Background: A growth-free zone around the sample is the usual read-out of agar diffusion tests.

Another assay has as its system N. carnea. The assay is described as follows: Kirby-Bauer disk diffusion susceptibility test. As to conditions: 300 μg/disc. As to the method: as §4, §5, §6, §7, §8
A further assay has as its system N. cyriacigeorgica. The assay is described as follows: Kirby-Bauer disk diffusion susceptibility test. To be noted: 300 μg/disc. As to the method:
as §4, §5, §6, §7, §8

A further assay has as its system T. pulmonis. Put plainly: Kirby-Bauer disk diffusion susceptibility test. As to conditions: 300 μg/disc. As to the method: as §4, §5, §6, §7, §8
Another assay deals with S. pneumoniae. The assay is described as follows: Kirby-Bauer disk diffusion susceptibility test. To be noted: 300 μg/disc. As to the method: as §4, §5, §6, §7, §8

What is called zone of inhibition is the size of the clear area around the sample on an inoculated plate. A high value points to a stronger effect on the plate. Take `NNC(=O)CC(=O)NNc1ccccc1` [MSG-187]: the zone of inhibition at 150 µg/disc with A. flavus, with A. fumigatus, in the assay with A. niger, in the assay with A. terreus, with C. albicans and in the assay with C. guillermondii was below 10 mm each time. Moreover, the zone of inhibition at 150 µg/disc with C. lusitaniae, in the assay on C. parapsilosis, with C. tropicalis and with S. cerevisiae was below 10 mm each time. Further, the zone of inhibition at 500 µg/disc in the assay on A. flavus was 36 mm; in the assay with A. fumigatus, 32 mm; in the assay with A. niger, 40 mm; with A. terreus it was below 10 mm; with C. albicans, 22 mm; in the assay on C. guillermondii, 22 mm. The zone of inhibition at 500 µg/disc is 20 mm with C. lusitaniae, 17 mm with C. parapsilosis, 18 mm in the assay on C. tropicalis and below 10 mm with S. cerevisiae.
`NNC(=O)C(=O)NNc1ccc(F)cc1` [MSG-193]: the zone of inhibition at 150 µg/disc with A. flavus amounted to 15 mm; in the assay on A. fumigatus, 20 mm; in the assay on A. niger, 15 mm; in the assay with A. terreus, 12 mm; in the assay with C. albicans, 20 mm; in the assay on C. guillermondii it was 20 mm. Moreover, the zone of inhibition at 150 µg/disc in the assay on C. lusitaniae came to 15 mm; in the assay with C. parapsilosis, 18 mm; with C. tropicalis, 30 mm; in the assay with S. cerevisiae it was 22 mm. For the same compound, the zone of inhibition at 500 µg/disc with A. flavus is above 40 mm; in the assay with A. fumigatus, above 40 mm; in the assay with A. niger, above 40 mm; in the assay on A. terreus, 32 mm; with C. albicans, above 40 mm; in the assay with C. guillermondii, 40 mm. In addition, the zone of inhibition at 500 µg/disc in the assay with C. lusitaniae is above 40 mm; in the assay on C. parapsilosis, above 40 mm; in the assay with C. tropicalis, above 40 mm; in the assay on S. cerevisiae, 40 mm.
On to `COc1ccc(NNC(=O)C(=O)NN)cc1` [MSG-210], for which the “Activity detected (mm)” value with A. baumannii is listed as 18 mm; with N. carnea it was 11 mm; with N. cyriacigeorgica, 15 mm; in the assay with T. pulmonis, 20 mm. Moreover, the zone of inhibition at 150 µg/disc came out at 10 mm with A. flavus; 10 mm in the assay with A. fumigatus; 27 mm in the assay with A. niger; 19 mm in the assay with A. terreus; 32 mm in the assay with C. albicans; 32 mm in the assay with C. guillermondii. The zone of inhibition at 150 µg/disc came to 39 mm with C. lusitaniae, 28 mm with C. parapsilosis, 34 mm in the assay on C. tropicalis and 28 mm in the assay on S. cerevisiae. Besides, the zone of inhibition at 500 µg/disc with A. flavus is 9 mm; in the assay on A. fumigatus it was 16 mm; with A. niger it was 40 mm; with A. terreus, 22 mm; in the assay on C. albicans, above 40 mm; in the assay with C. guillermondii, 35 mm. Besides, the zone of inhibition at 500 µg/disc in the assay with C. lusitaniae was above 40 mm; in the assay with C. parapsilosis it was 32 mm; in the assay with C. tropicalis, 36 mm; in the assay with S. cerevisiae it was 30 mm.
For `NNC(=O)C(=O)NNc1ccc(Cl)cc1` [MSG-214], the “Activity detected (mm)” value in the assay with A. baumannii was found to be 12 mm; with N. carnea, 14 mm; in the assay on N. cyriacigeorgica, 25 mm; in the assay on S. pneumoniae it was 11 mm; in the assay with T. pulmonis, 30 mm. Moreover, the zone of inhibition at 150 µg/disc with A. flavus was below 10 mm; in the assay on A. fumigatus, below 10 mm; in the assay on A. niger it was 10 mm; in the assay with A. terreus it was below 10 mm; in the assay with C. albicans it was 40 mm; with C. guillermondii, 15 mm. Further, the zone of inhibition at 150 µg/disc amounted to 42 mm with C. lusitaniae, 15 mm in the assay on C. parapsilosis, 34 mm in the assay with C. tropicalis and 15 mm in the assay on S. cerevisiae. Also, the zone of inhibition at 500 µg/disc with A. flavus was below 10 mm; in the assay on A. fumigatus, 16 mm; in the assay with A. niger, above 40 mm; in the assay on A. terreus it was 17 mm; in the assay with C. albicans, above 40 mm; in the assay with C. guillermondii it was above 40 mm. Also, the zone of inhibition at 500 µg/disc in the assay with C. lusitaniae is above 40 mm; in the assay on C. parapsilosis it was above 40 mm; in the assay with C. tropicalis, above 40 mm; with S. cerevisiae, 32 mm.
For the compound `Cc1ccc(NNC(=O)C(=O)NN)cc1` [MSG-218], the “Activity detected (mm)” value with A. baumannii is recorded as 15 mm; with T. pulmonis, 33 mm. In addition, the zone of inhibition at 150 µg/disc was below 10 mm in the assay with A. flavus; below 10 mm in the assay with A. fumigatus; 22 mm in the assay on A. niger; below 10 mm in the assay with A. terreus; 24 mm with C. albicans; 22 mm in the assay with C. guillermondii. The zone of inhibition at 150 µg/disc in the assay on C. lusitaniae was 22 mm; with C. parapsilosis it was 25 mm; with C. tropicalis it was 10 mm; in the assay with S. cerevisiae it was 24 mm. The zone of inhibition at 500 µg/disc with A. flavus is below 10 mm; with A. fumigatus it was 10 mm; in the assay on A. niger, 30 mm; in the assay on A. terreus, 10 mm; with C. albicans, above 40 mm; in the assay with C. guillermondii, 40 mm. The zone of inhibition at 500 µg/disc in the assay on C. lusitaniae worked out at 46 mm; in the assay on C. parapsilosis it was 36 mm; with C. tropicalis, 40 mm; in the assay with S. cerevisiae, 34 mm.
Consider `COc1cccc(NNC(=O)C(=O)NN)c1` [MSG-227], for which the zone of inhibition at 150 µg/disc in the assay with A. flavus was 25 mm; in the assay on A. fumigatus, 11 mm; in the assay with A. niger, 32 mm; in the assay on A. terreus it was above 40 mm; in the assay with C. albicans it was 26 mm; in the assay on C. guillermondii, above 40 mm. For the same compound, the zone of inhibition at 150 µg/disc with C. lusitaniae was above 40 mm; in the assay with C. parapsilosis, 31 mm; in the assay on C. tropicalis, 26 mm; with S. cerevisiae, 20 mm. In addition, the zone of inhibition at 500 µg/disc in the assay on A. flavus, in the assay with A. fumigatus, in the assay with A. niger, in the assay with A. terreus, in the assay on C. albicans and with C. guillermondii was above 40 mm in each case. In addition, the zone of inhibition at 500 µg/disc in the assay on C. lusitaniae is above 40 mm; in the assay on C. parapsilosis it was above 40 mm; in the assay with C. tropicalis, above 40 mm; in the assay on S. cerevisiae, 25 mm.
